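Each compound was tested at five concentrations against cells in 96-well plates for 48 hours. The concentration for full growth arrest is given as TGI.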
Assays:
Test in all cases: DTP human tumour cell line panel, 48 h
786-0 renal = tested on: 786-0 renal
A549 NSCLC = tested on: A549 NSCLC
ACHN renal = tested on: ACHN renal
CAKI-1 renal = tested on: CAKI-1 renal
CCRF-CEM leukemia = tested on: CCRF-CEM leukemia
COLO 205 colon = tested on: COLO 205 colon
DU-145 prostate = tested on: DU-145 prostate
EKVX NSCLC = tested on: EKVX NSCLC
HCT-116 colon = tested on: HCT-116 colon
HCT-15 colon = tested on: HCT-15 colon
HOP-92 NSCLC = tested on: HOP-92 NSCLC
HS 578T breast = tested on: HS 578T breast
HT29 colon = tested on: HT29 colon
IGROV1 ovarian = tested on: IGROV1 ovarian
K-562 leukemia = tested on: K-562 leukemia
KM12 colon = tested on: KM12 colon
LOX IMVI melanoma = tested on: LOX IMVI melanoma
M14 melanoma = tested on: M14 melanoma
MCF7 breast = tested on: MCF7 breast
MDA-MB-435 = tested on: MDA-MB-435
MDA-N = tested on: MDA-N
MOLT-4 leukemia = tested on: MOLT-4 leukemia
NCI-H23 lung = tested on: NCI-H23 lung
NCI-H460 lung = tested on: NCI-H460 lung
NCI-H522 lung = tested on: NCI-H522 lung
NCI/ADR-RES ovarian = tested on: NCI/ADR-RES ovarian
OVCAR-3 ovarian = tested on: OVCAR-3 ovarian
OVCAR-5 ovarian = tested on: OVCAR-5 ovarian
OVCAR-8 ovarian = tested on: OVCAR-8 ovarian
PC-3 prostate = tested on: PC-3 prostate
RPMI-8226 leukemia = tested on: RPMI-8226 leukemia
SF-268 CNS = tested on: SF-268 CNS
SF-295 CNS = tested on: SF-295 CNS
SF-539 CNS = tested on: SF-539 CNS
SK-MEL-2 melanoma = tested on: SK-MEL-2 melanoma
SK-MEL-28 melanoma = tested on: SK-MEL-28 melanoma
SK-MEL-5 melanoma = tested on: SK-MEL-5 melanoma
SN12C renal = tested on: SN12C renal
SNB-19 CNS = tested on: SNB-19 CNS
SR leukemia = tested on: SR leukemia
SW-620 colon = tested on: SW-620 colon
T-47D breast = tested on: T-47D breast
TK-10 renal = tested on: TK-10 renal
UACC-257 melanoma = tested on: UACC-257 melanoma
UACC-62 melanoma = tested on: UACC-62 melanoma
UO-31 renal = tested on: UO-31 renal
A498 renal = tested on: A498 renal
BT-549 breast = tested on: BT-549 breast
HCC-2998 colon = tested on: HCC-2998 colon
HL-60(TB) leukemia = tested on: HL-60(TB) leukemia
HOP-62 NSCLC = tested on: HOP-62 NSCLC
MALME-3M melanoma = tested on: MALME-3M melanoma
MDA-MB-231 breast = tested on: MDA-MB-231 breast
NCI-H226 lung = tested on: NCI-H226 lung
OVCAR-4 ovarian = tested on: OVCAR-4 ovarian
RXF 393 renal = tested on: RXF 393 renal
SK-OV-3 ovarian = tested on: SK-OV-3 ovarian
SNB-75 CNS = tested on: SNB-75 CNS
U251 CNS = tested on: U251 CNS

`O=C1c2ccccc2C(=O)N1CCc1ncc[nH]1` showed a TGI (786-0 renal) of over 100 µM, a TGI (A549 NSCLC) of over 100 µM and a TGI (ACHN renal) of over 100 µM. It also gave a TGI (CAKI-1 renal) of over 100 µM, a TGI (CCRF-CEM leukemia) of over 100 µM and a TGI (COLO 205 colon) of over 100 µM. For the same molecule, the TGI (DU-145 prostate) was over 100 µM, the TGI (EKVX NSCLC) was over 100 µM and the TGI (HCT-116 colon) was over 100 µM. For the same molecule, the TGI (HCT-15 colon) was over 100 µM, the TGI (HOP-92 NSCLC) was over 100 µM and the TGI (HS 578T breast) was over 100 µM. For the same molecule, the TGI (HT29 colon) was over 100 µM, the TGI (IGROV1 ovarian) was over 100 µM and the TGI (K-562 leukemia) was over 100 µM. The TGI (KM12 colon) was over 100 µM, the TGI (LOX IMVI melanoma) was over 100 µM and the TGI (M14 melanoma) was over 100 µM. The TGI (MCF7 breast) was over 100 µM, the TGI (MDA-MB-435) was over 100 µM and the TGI (MDA-N) was over 100 µM. The TGI (MOLT-4 leukemia) was over 100 µM, the TGI (NCI-H23 lung) was over 100 µM and the TGI (NCI-H460 lung) was over 100 µM. The TGI (NCI-H522 lung) was over 100 µM, the TGI (NCI/ADR-RES ovarian) was over 100 µM and the TGI (OVCAR-3 ovarian) was over 100 µM. The TGI (OVCAR-5 ovarian) was over 100 µM, the TGI (OVCAR-8 ovarian) was over 100 µM and the TGI (PC-3 prostate) was over 100 µM. The TGI (RPMI-8226 leukemia) was over 100 µM, the TGI (SF-268 CNS) was over 100 µM and the TGI (SF-295 CNS) was over 100 µM. For the same molecule, the TGI (SF-539 CNS) was over 100 µM, the TGI (SK-MEL-2 melanoma) was over 100 µM and the TGI (SK-MEL-28 melanoma) was over 100 µM. For the same molecule, the TGI (SK-MEL-5 melanoma) was over 100 µM, the TGI (SN12C renal) was over 100 µM and the TGI (SNB-19 CNS) was over 100 µM. It also gave a TGI (SR leukemia) of over 100 µM, a TGI (SW-620 colon) of over 100 µM and a TGI (T-47D breast) of over 100 µM. For the same molecule, the TGI (TK-10 renal) was over 100 µM, the TGI (UACC-257 melanoma) was over 100 µM and the TGI (UACC-62 melanoma) was over 100 µM. For the same molecule, the TGI (UO-31 renal) was over 100 µM.
`O=C(O)c1ccccc1/C=N/NC1=NCCN1` was tested, and the TGI (786-0 renal) was over 100 µM, the TGI (A498 renal) was over 100 µM and the TGI (A549 NSCLC) was over 100 µM. For the same molecule, the TGI (ACHN renal) was over 100 µM, the TGI (BT-549 breast) was over 100 µM and the TGI (CCRF-CEM leukemia) was over 100 µM. The TGI (COLO 205 colon) was over 100 µM, the TGI (EKVX NSCLC) was over 100 µM and the TGI (HCC-2998 colon) was over 100 µM. It also gave a TGI (HCT-116 colon) of over 100 µM, a TGI (HCT-15 colon) of over 100 µM and a TGI (HL-60(TB) leukemia) of over 100 µM. It also gave a TGI (HOP-62 NSCLC) of over 100 µM, a TGI (HOP-92 NSCLC) of 91.9 µM and a TGI (HS 578T breast) of over 100 µM. For the same molecule, the TGI (HT29 colon) was over 100 µM, the TGI (IGROV1 ovarian) was over 100 µM and the TGI (K-562 leukemia) was over 100 µM. It also gave a TGI (KM12 colon) of over 100 µM, a TGI (LOX IMVI melanoma) of over 100 µM and a TGI (M14 melanoma) of over 100 µM. The TGI (MALME-3M melanoma) was over 100 µM, the TGI (MCF7 breast) was over 100 µM and the TGI (MDA-MB-231 breast) was over 100 µM. The TGI (MDA-MB-435) was over 100 µM, the TGI (MDA-N) was over 100 µM and the TGI (MOLT-4 leukemia) was over 100 µM. For the same molecule, the TGI (NCI-H226 lung) was over 100 µM, the TGI (NCI-H23 lung) was over 100 µM and the TGI (NCI-H460 lung) was over 100 µM. The TGI (NCI-H522 lung) was over 100 µM, the TGI (NCI/ADR-RES ovarian) was over 100 µM and the TGI (OVCAR-3 ovarian) was over 100 µM. For the same molecule, the TGI (OVCAR-4 ovarian) was over 100 µM, the TGI (OVCAR-5 ovarian) was over 100 µM and the TGI (OVCAR-8 ovarian) was over 100 µM. For the same molecule, the TGI (PC-3 prostate) was over 100 µM, the TGI (RPMI-8226 leukemia) was over 100 µM and the TGI (RXF 393 renal) was over 100 µM. For the same molecule, the TGI (SF-268 CNS) was over 100 µM, the TGI (SF-295 CNS) was over 100 µM and the TGI (SF-539 CNS) was over 100 µM. The TGI (SK-MEL-2 melanoma) was over 100 µM, the TGI (SK-MEL-28 melanoma) was over 100 µM and the TGI (SK-MEL-5 melanoma) was over 100 µM. It also gave a TGI (SK-OV-3 ovarian) of over 100 µM, a TGI (SNB-19 CNS) of over 100 µM and a TGI (SNB-75 CNS) of over 100 µM. For the same molecule, the TGI (SR leukemia) was over 100 µM, the TGI (SW-620 colon) was over 100 µM and the TGI (T-47D breast) was over 100 µM. For the same molecule, the TGI (TK-10 renal) was over 100 µM, the TGI (U251 CNS) was over 100 µM and the TGI (UACC-257 melanoma) was over 100 µM. For the same molecule, the TGI (UACC-62 melanoma) was over 100 µM and the TGI (UO-31 renal) was over 100 µM.

— PubChem BioAssay (NCI)
